Structures can show the parent of a compound that is named as a salt. Where two headings read alike, the source gives them in different places.

The IC50 is the concentration needed to halve the response being measured. A higher IC50 goes with a need for much substance.

Experiment [1] concerns the target muscarinic receptors. The format is binding, Hooded Lister rats. The note with it: displacement of muscarinic antagonist 3H-QNB (0.27nM), rat cerebral cortex, 37° C., 30 min.
Experiment [2] concerns the target muscarinic receptors. The experiment in a line: Radio ligand binding: displacement of the muscarinic agonist 3H-Oxotremorine-M (3H-OXO-M) from cerebral cortex membranes. The settings on record: displacement of muscarinic agonist 3H-OXO-M (2nM), rat cerebral cortex, 2mM magnesium chloride, 37° C., 30 min. On the set-up: species or system Hooded Lister rats.

Regarding `Nc1noc(C[C@@H]2CN3CC[C@@H]2C3)n1` (relative stereo) [Example E1, (±) exo 3-[(3-Amino-1,2,4-oxadiazol-5-yl)methyl]-1-azabicyclo[2.2.1]heptane], the results for the half-maximal inhibitory concentration (IC50) at muscarinic receptors [1] and on muscarinic receptors [2] were 7500 nM and 36.5 nM, respectively.

The molecule `c1csc(CC2CN3CCC2CC3)n1` (racemic) [Example E17, (±) 3-((1,3-Thiazol-2-yl)methyl)-1-azabicyclo[2.2.2]octane oxalate salt] yielded an IC50 on muscarinic receptors [2] of 875 nM.

Take `c1coc(CC2CN3CCC2CC3)n1` (racemic) [Example E3, (±) 3-(1,3-Oxazol-2-yl)methyl]-1-azabicyclo[2.2.2]octane oxalate salt]: the IC50 on muscarinic receptors [1] came to 7000 nM; on muscarinic receptors [2], 755 nM.

In the case of `Cc1noc(CC2CN3CCC2CC3)n1` (racemic) [Example E2, (±) 3-[(3-Methyl-1,2,4-oxadiazol-5-yl)methyl]-1-azabicyclo[2.2.2]octane hydrochloride salt], the concentration for half-maximal inhibition (IC50) at muscarinic receptors [1] is 13000 nM; on muscarinic receptors [2], 1050 nM.

Regarding `Cc1nc(C[C@H]2CN3CC[C@@H]2C3)no1` (relative stereo) [Example E15, (±) endo 3-[(5-Methyl-1,2,4-oxadiazol-3-yl)methyl-1-azabicyclo[2.2.11]heptane hydrochloride salt], the half-maximal inhibitory concentration (IC50) is 30500 nM at muscarinic receptors [1] and 950 nM at muscarinic receptors [2].

For the molecule `c1coc(C[C@H]2CN3CC[C@@H]2C3)n1` (relative stereo) [Example E7, (±) endo 3-(1,3-Oxazol-2-yl)methyl]-1-azabicyclo[2.2.1]heptane oxalate salt], the IC50 is 8000 nM at muscarinic receptors [1] and 42 nM at muscarinic receptors [2].

For the molecule `c1coc(CC23CCCN(CC2)C3)c1` (racemic) [Example E12, (±) 5-[(Fur-2-yl)methyl-1-azabicyclo[3.2.1]octane oxalate salt], the IC50 stood at 4000 nM on muscarinic receptors [1] and 660 nM at muscarinic receptors [2].

For the molecule `Nc1noc(CC23CCCN(CC2)C3)n1` (racemic) [Example E4, (±) 5-[(3-Amino-1,2,4-oxadiazol-5-yl)methyl]-1-azabicyclo[3.2.1]octane], the figures for the IC50 on muscarinic receptors [1] and on muscarinic receptors [2] were 6700 nM and 580 nM, respectively.

In the case of `c1coc(CC23CCN(CC2)C3)n1` [Example E14, 4-[(1,3-Oxazol-2-yl)methyl]-1-azabicyclo[2.2.1]heptane oxalate salt], the results for the IC50 on muscarinic receptors [1] and on muscarinic receptors [2] were 74000 nM and 410 nM, respectively.

`Nc1noc(CC23CCN(CC2)C3)n1` [Example E13, 4-[(3-Amino-1,2,4-oxadiazol-5-yl)methyl]-1-azabicyclo[2.2.1]heptane]: the results for the IC50 on muscarinic receptors [1] and on muscarinic receptors [2] were 85000 nM and 118 nM, respectively.

The molecule `Cc1nc(C[C@@H]2CN3CC[C@@H]2C3)no1` (relative stereo) [Example E16, (±) exo 3-[(5-Methyl-1,2,4-oxadiazol-3-yl)methyl)-1-azabicyclo[2.2.1]heptane hydrochloride salt] yielded a half-inhibitory concentration (IC50) at muscarinic receptors [2] of 1000 nM.

Take `Nc1noc(C[C@H]2CN3CC[C@@H]2C3)n1` (relative stereo) [Example E5, (±) endo 3-[(3-Amino-1,2,4-oxadiazol-5-yl)methyl]-1-azabicyclo[2.2.1]heptane]: the half-inhibitory concentration (IC50) worked out at 21000 nM on muscarinic receptors [1] and 32 nM at muscarinic receptors [2].

Consider `Nc1noc(C[C@@H]2C[C@@H]3CCN(C2)C3)n1` (relative stereo) [Example E9, (±) endo 3-[(3-Amino-1,2,4-oxadiazol-5-yl)methyl]-1-azabicyclo[3.2.1]octane], for which the IC50 at muscarinic receptors [1] was 4600 nM; on muscarinic receptors [2] it was 925 nM.

As to `Cn1nnc(C[C@H]2CN3CC[C@@H]2C3)n1` (relative stereo) [Example E11, (±) endo 3-[(2-Methyltetrazol-5-yl)methyl]-1-azabicyclo[2.2.11]heptane oxalate salt], the IC50 at muscarinic receptors [1] is 8000 nM; at muscarinic receptors [2], 340 nM.

For the molecule `c1ncc(C[C@H]2CN3CC[C@@H]2C3)o1` (relative stereo) [Example E8, (±) endo 3-(1,3-Oxazol-5-yl)methyl-1-azabicyclo[2.2.1]heptane hydrochloride salt], the results for the concentration for half-maximal inhibition (IC50) at muscarinic receptors [1] and at muscarinic receptors [2] were 38000 nM and 625 nM, respectively.

Turning to `c1coc(C[C@@H]2CN3CC[C@@H]2C3)n1` (relative stereo) [Example E10, (±) exo 3-(1,3-Oxazo1-2-yl)methyl-1-azabicyclo [2.2.1]heptane oxalate salt], the IC50 at muscarinic receptors [1] worked out at 5600 nM; at muscarinic receptors [2] it was 38 nM.

Turning to `Cc1noc(C[C@H]2CN3CC[C@@H]2C3)n1` (relative stereo) [Example E6, (±) endo 3-(3-Methyl-1,2.4-oxadiazol-5-yl)methyl-1-azabicyclo[2.2.1]heptane oxalate salt], the IC50 on muscarinic receptors [1] was 10200 nM; on muscarinic receptors [2] it was 150 nM.

These data come from US5091397A (priority 1988, dated 1992).
